This note sets out measurements from PMC7356787, “Structure-Activity Relationships for the Anaesthetic and Analgaesic Properties of Aromatic Ring-Substituted Ketamine Esters” (Molecules, 2020).

Series [1] has as its system rats. In words: Anaesthetic assessment by continuous intravenous infusion in rats (loss and return of righting reflex). Type of series: in vivo. As to conditions: iv; rat, i.v. infusion starting at 20 mg/kg/min; measure of sedative potency; mean (SEM); read-out: Sedation LORR: minimal dose for loss of righting reflex (SEM). The method, then:
(§1) The compounds were evaluated for their ability to anaesthetise rats when administered by continuous intravenous infusion, as reported previously. Compounds were administered to initially deliver 20 mg/kg/min (weight-adjusted flow) to achieve a pedal withdrawal reflex score (PWR = 1), then titrated to maintain loss of righting reflex (LORR) for 10 min. Three rats were used in each study, with each group of rats also acting as their own ketamine control. Data were collected on the total dose of drug (mg/kg), to achieve LORR and a PWR = 1, and on the time (in seconds, from cessation of the infusion) to recovery of righting reflex (RORR) (recovery from the hypnotic anaesthesia effect). Given the complexity of the experimental protocol, the total dose for LORR (Table 1) is very consistent, with ranges of only 1.5-fold within each group. The consistency of the post-sedation recovery times are expectedly lower, with ranges of about 2.5-fold. During recovery the rats were monitored for multiple signs of behavioural dysfunction (see biology section for details) and the sum of these scores (from 0 to 4, with 0 being no effect and 4 being severe dysfunction) is given in Table 2. IC50 values for inhibition of the NMDA receptor were conducted by Eurofins PanLabs, Taiwan.
(§2) All animal experiments were conducted at the Ruakura Research Centre, Hamilton, New Zealand, using experimental protocols reviewed and approved by the Ruakura Animal Ethics Committee (ethics ref 12604/13786). Adult female Sprague-Dawley rats of approximately 250–350 g were evaluated in both anaesthetic and analgaesic study protocols. All study agents were delivered by tail vein cannula connected via minibore extension tubing to mechanised infusion pump.
(§3) Following acquisition of baseline physiologic parameters (heart rate, respiratory rate, PWR, and righting reflex (RR)) ketamine or an experimental compound at 10mg/mL were commenced at a rate (weight-adjusted) to deliver 20 mg/kg/min. Dose to loss of righting reflex (LORR see below), and subsequent pedal withdrawal score of 1 (PWR see below) were recorded. Following attaining a PWR of 1, infusion rate was reduced to 6.7 mg/kg/min, then titrated in an up-and-down fashion as required to maintain both dorsal recumbency, and a PWR = 1, to 10 min before cessation. Each study used three rats, with each group of rats also acting as their own ketamine control. Prior odds/evens randomisation determined the order of study drug administration was determined by with a recovery interval of at least three hours afforded between experiments. Records of PWR and RR were made at one-minute intervals throughout, from cessation of infusion to return of righting reflex (RORR), and from cessation of infusion to the animals displaying independent locomotion (walk).
Loss of Righting Reflex (LORR): This is primarily used to assess anaesthetic hypnotic effect. Righting reflex is judged absent when the rat fails to right from a position of dorsal recumbency to a position of sternal recumbency on three attempts performed in rapid succession. Dose to LORR is termed effective potency.

Another series is described as follows: Drug half-life in rats. As to conditions: rat, in vivo. From the text:
Table 1 Biological and physiochemical data for esters of ring-substituted ketamine analogues. | column: Rat / t½ ^e (min)

In series [2] the target is N-methyl-D-aspartate receptor. In words: Inhibition of the NMDA receptor (Eurofins Panlabs Taiwan). Type of series: binding. The settings on record: conducted by Eurofins Panlabs Taiwan. As to the method: as §1
In series [3] the test system is rats. Kind of series: Pedal withdrawal reflex (PWR) scoring during intravenous infusion (analgaesic potency). Format: in vivo. The settings on record: rat, i.v. infusion, dose to PWR = 1, mean (SEM), read-out: Analgaesia potency: minimal dose for loss of pedal withdrawal reflex (SEM). As to the method: as §1, §2, §3
Pedal Withdrawal Reflex (PWR) scoring: Nociceptive testing in animals was conducted via 1 s application of constant pressure (firm digital pressure) over the forepaw of the animal. Pedal withdrawal reflex testing is primarily used to assess analgaesic effect, and responses are graded accordingly: 0, absent; 1, flicker; 2, moderate withdrawal; 3, fast withdrawal; 4, Fast withdrawal with cry/preceding apnoea (modified from).

In series [4] the test system is rats. Kind of series: Tail flick analgaesic assessment (composite tail flick latency, cTFL). Format: in vivo. As to conditions: rat, 20 mg/kg i.v. infused over 10 min; AUC of %MPE-time curve 0-60 min; measure of analgaesic magnitude/duration. The method, then: Analgaesic assessment protocol: Animal preparation was in accord with the anaesthetic assessment protocol above. Three rats were used in each study. Following venous cannulation, animals underwent infusion of ketamine or experimental compound at 20 mg/kg over a ten minute interval. A tail flick analgaesia meter (Colombus Instruments, Colombus, Ohio) was then used to determine thermal pain sensitivity. Radiant heat was applied using a shutter-controlled lamp as a heat source focused on a spot located 6–8 cm from the tip of the tail. The intensity of the beam was set at a level producing basal latency times between 2 and 4 s. To prevent thermal tissue injury the cut off time as set at 10 s. A digital response time indicator with a resolution of 0.1s measured the time from initiation of stimulus until tail withdrawal (the flick; TFL).
The TFL response following infusion of control and study drugs was calculated as a percentage of the maximum possible effect (MPE) such that:%MPE = [TFL (post-drug) – TFL (pre-drug)/10 s – TFL (pre-drug)] × 100%(1)
TFL latency was recorded at 5 min intervals from cessation of study drug infusion (time zero) to 60 min. Individual %MPE-time curves were constructed for each animal, and the area under the curve (AUC) adopted as a composite measure of induced analgaesia (cTFL).
A general note: Hot-plate and tail-flick tests time the reaction to a heat stimulus.

In series [5] the test system is rats. In words: Behavioural dysfunction scoring during recovery from infusion. Format: in vivo. As to conditions: rat, during wake-up, sum score 0 (no effect) to 4 (severe dysfunction), mean (SEM). As to the method:
as §1
Behavioural dysfunction scoring: This was undertaken according to the following table. Observations were made over a one minute interval every five minutes from cessation of infusion until return of normal behaviours (total score = 0). A score of 1 was accorded for any positive behavioural aberration for each of four categories (maximal score 4) during wake-up.
Duration of any behavioural aberration was recorded from RORR as follows: score 0 = nil; score1 = 0–120 s; score 2 = 121–300 s; score 3 = 301–600 s; score 4 = 600+ s.

Take `CC(C)OC(=O)CCNC1(c2ccccc2Cl)CCCCC1=O` (centres unmarked) [5a]: the minimal effective dose turned out to be 33 mg/kg in the series on rats [1] and 37 mg/kg with rats [3]. Moreover, in “Drug half-life in rats”, the half-life (commonly the time needed for the level to fall by half in the phase considered) was 3.4 min. Moreover, the IC50 – broadly, the concentration at which inhibition is half-maximal – in series [2] turned out to be 134 µM. For the same compound, the “Analgaesia cTFL (composite tail flick latency)” value (“Analgaesia cTFL” for short) with rats [4] is 1384 s. The “Behavioural dysfunction Score (SEM): severity on recovery” value (from here on “Behavioural dysfunction Score (SEM)”) with rats [5] was 2 (1).

`COC(=O)CCCCNC1(c2ccccc2Cl)CCCCC1=O` (centres unmarked) [5b]: the values for the minimal effective dose in the series on rats [1] and with rats [3] were 34 mg/kg and 44 mg/kg, respectively. In addition, the half-life in the series “Drug half-life in rats” was found to be 0.7 min. Further, the midpoint of inhibition in series [2], the IC50, lay at 3.2 µM. In addition, in the series on rats [4], the “Analgaesia cTFL” value was determined as 374 s. Further, the “Behavioural dysfunction Score (SEM)” value in the series with rats [5] is on record as 2 (0).

As to `CC(C)OC(=O)CCNC1(c2cccc(C(F)(F)F)c2)CCCCC1=O` (centres unmarked) [13a], the minimal effective dose with rats [1] and with rats [3] was over 200 mg/kg throughout. Besides, inhibition in series [2] was half-maximal at 229 µM (IC50). Moreover, the “Analgaesia cTFL” value in the series with rats [4] was 208 s. The “Behavioural dysfunction Score (SEM)” value with rats [5] is recorded as 0 (0).

On to `COC(=O)CCCCNC1(c2cccc(C(F)(F)F)c2)CCCCC1=O` (centres unmarked) [13b], for which the minimal effective dose in the series with rats [1] and in the series on rats [3] was over 200 mg/kg each time. Besides, the IC50 in series [2] stood at 172 µM. The “Analgaesia cTFL” value with rats [4] is 8 s. For the same compound, the “Behavioural dysfunction Score (SEM)” value with rats [5] was 0 (0).

Consider `CC(C)OC(=O)CCNC1(c2cccc(OC(F)(F)F)c2)CCCCC1=O` (centres unmarked) [14a], for which the minimal effective dose in the series with rats [1] and with rats [3] was over 200 mg/kg each time. Further, in series [2], it took 211 µM to reach half-maximal inhibition (IC50). For the same compound, the “Analgaesia cTFL” value with rats [4] worked out at 274 s. In the series with rats [5], the “Behavioural dysfunction Score (SEM)” value was 0 (0).

As to `COC(=O)CCCCNC1(c2cccc(OC(F)(F)F)c2)CCCCC1=O` (centres unmarked) [14b], the minimal effective dose with rats [1] and in the series on rats [3] was over 200 mg/kg each time. For the same compound, in series [2], half-maximal inhibition (IC50) required 57 µM. The “Analgaesia cTFL” value in the series on rats [4] stood at 444 s. For the same compound, the “Behavioural dysfunction Score (SEM)” value with rats [5] was 0 (0).

On to `CC(C)OC(=O)CCNC1(c2ccc(Cl)cc2)CCCCC1=O` (centres unmarked) [15a], for which the minimal effective dose in the series with rats [1] is 99 mg/kg; with rats [3], over 200 mg/kg. In series [2], this compound had an IC50 of 129 µM. Also, in the series with rats [4], the “Analgaesia cTFL” value was determined as 491 s. The “Behavioural dysfunction Score (SEM)” value in the series with rats [5] is 2 (1).

Turning to `COC(=O)CCCCNC1(c2ccc(Cl)cc2)CCCCC1=O` (centres unmarked) [15b, Methyl 5-((1-(4-chlorophenyl)-2-oxocyclohexyl)amino)pentanoate], the minimal effective dose in the series on rats [1] turned out to be 89 mg/kg; in the series with rats [3], 100 mg/kg. In series [2], this compound gave a half-maximal inhibitory concentration (IC50) of 101 µM. The “Analgaesia cTFL” value with rats [4] was determined as 576 s. The “Behavioural dysfunction Score (SEM)” value in the series with rats [5] is reported as 3 (1).

For the compound `Cc1ccc(C2(NCCC(=O)OC(C)C)CCCCC2=O)cc1` (centres unmarked) [16a], the minimal effective dose with rats [1] is 47 mg/kg; in the series on rats [3], 52 mg/kg. Also, the midpoint of inhibition in series [2], the IC50, lay at 161 µM. Also, the “Analgaesia cTFL” value with rats [4] was 650 s. In the series with rats [5], the “Behavioural dysfunction Score (SEM)” value was 1 (0).

Regarding `COC(=O)CCCCNC1(c2ccc(C)cc2)CCCCC1=O` (centres unmarked) [16b], the minimal effective dose in the series on rats [1] amounted to 50 mg/kg; in the series on rats [3], 55 mg/kg. In addition, the IC50 in series [2] stood at 23 µM. In addition, the “Analgaesia cTFL” value in the series with rats [4] was determined as 0 s. Further, the “Behavioural dysfunction Score (SEM)” value in the series with rats [5] was 1 (0).

`COc1ccc(C2(NCCC(=O)OC(C)C)CCCCC2=O)cc1` (centres unmarked) [17a]: the minimal effective dose in the series with rats [1] and in the series with rats [3] was over 200 mg/kg throughout. For the same compound, the concentration for half-maximal inhibition (IC50) in series [2] was found to be 396 µM. Further, the “Analgaesia cTFL” value with rats [4] was 167 s. For the same compound, in the series with rats [5], the “Behavioural dysfunction Score (SEM)” value is on record as 0 (0).

As to `CC(C)OC(=O)CCNC1(c2ccc(C(F)(F)F)cc2)CCCCC1=O` (centres unmarked) [18a], the minimal effective dose in the series with rats [1] and in the series on rats [3] was over 200 mg/kg in each case. Moreover, 438 µM corresponded to half-maximal inhibition in series [2] (IC50). Also, the “Analgaesia cTFL” value with rats [4] stood at 412 s. In the series on rats [5], the “Behavioural dysfunction Score (SEM)” value is on record as 0 (0).

For the compound `COC(=O)CCCCNC1(c2ccc(C(F)(F)F)cc2)CCCCC1=O` (centres unmarked) [18b], the minimal effective dose in the series with rats [1] and in the series with rats [3] was over 200 mg/kg in each case. Moreover, half-maximal inhibition in series [2] (IC50) required 470 µM. For the same compound, the “Analgaesia cTFL” value in the series on rats [4] was determined as 37 s. For the same compound, in the series with rats [5], the “Behavioural dysfunction Score (SEM)” value was 0 (0).

Regarding `CC(C)OC(=O)CCNC1(c2ccc(OC(F)(F)F)cc2)CCCCC1=O` (centres unmarked) [19a], the minimal effective dose with rats [1] and in the series on rats [3] was over 200 mg/kg each time. In addition, inhibition in series [2] was half-maximal at 314 µM (IC50). Also, in the series with rats [4], the “Analgaesia cTFL” value was 166 s. In the series with rats [5], the “Behavioural dysfunction Score (SEM)” value was 0 (0).

For the compound `COC(=O)CCCCNC1(c2ccc(OC(F)(F)F)cc2)CCCCC1=O` (centres unmarked) [19b], the minimal effective dose in the series on rats [1] and in the series on rats [3] was over 200 mg/kg each time. In series [2], this compound registered an IC50 of 597 µM. Also, in the series on rats [4], the “Analgaesia cTFL” value came to 194 s. For the same compound, in the series with rats [5], the “Behavioural dysfunction Score (SEM)” value is on record as 0 (0).

As to `CC(C)OC(=O)CCNC1(c2cccs2)CCCCC1=O` (centres unmarked) [20a], the minimal effective dose in the series on rats [1] and with rats [3] was over 200 mg/kg each time. In series [2], this compound registered an IC50 of 157 µM. The “Analgaesia cTFL” value with rats [4] was 362 s. Moreover, in the series on rats [5], the “Behavioural dysfunction Score (SEM)” value is 1 (1).

As to `CNC1(c2ccccc2Cl)CCCCC1=O` (centres unmarked) [compound 1, ketamine], the minimal effective dose in the series with rats [1] is 21 mg/kg; in the series on rats [3], 28 mg/kg. The same compound had a half-life in “Drug half-life in rats” of 44.4 min. This compound came in with an IC50 in series [2] of 0.7 µM. For the same compound, in the series with rats [4], the “Analgaesia cTFL” value stood at 671 s. Also, the “Behavioural dysfunction Score (SEM)” value in the series on rats [5] is given as 3 (0); with rats [5] (listed as ketamine) it was 3.
